Where two headings read alike, the source gives them in different places.
How the values were obtained:
[1] = tested on: HBV; assay: Inhibition of HBV growth (HBV-DNA synthesis in HB611 cells, southern blotting); assay type: cell-based; design: dose or concentration left out as unconfirmed; conditions: Hepatitis B virus, 408 h, DNA recovered day 17
Experimental: (§1) HB611 cells (recombinant human lever cancer cell producing HBV, 2×10^4) was incubated on Dulbecco ME medium containing bovine fetal serum, streptomycin ([…]), penicillin (100 IU/ml) and G-418 (0.2 mg/ml) at 37° C. On the 2nd and 5th days of cultivation, the medium was changed, then the media containing specimens at final concentration of 10 mM were substituted on the 8th, 11th and 14th days. On 17 days of cultivation, DNA of the cell was recovered. The amount of HBV-DNA was measured by southern blotting, and inhibition of HBV-DNA synthesis in the cell was determined. In addition, the concentration of the compound required for 50% death of the HB611 cells was determined.

[2] = Concentration required for 50% death of HB611 cells; assay type: cell-based; conditions: human, read-out: LD50 of HB611 cell
Experimental: as §1

[3] = tested on: HBV; assay: Inhibition of HBV growth in rat serum upon oral administration (HB611 cells cultured with 5% serum); assay type: in vivo; conditions: Hepatitis B virus, read-out: HBV-DNA Synthesis Inhibition; for inhibition at 500 mg/kg: single oral dose 0.5 g/kg
Experimental: (§2) Inhibition of HBV growth in rat or mouse serum upon oral administration
(§3) Groups of rats (3 rats per group) were received single oral dose of specimen (1 g/kg or 0.5 g/kg), bled at 1 hour after administration and serum was prepared. Separately, groups of mice (3 mice per group) were received single oral dose of specimen (0.3 g/kg), bled at 30 minutes after administration and serum was prepared.
(§4) HB611 cells (2×10^4) were incubated on Dulbecco ME medium containing 10% bovine fetal serum, streptomycin ([…]), penicillin (100 IU/ml) and G-418 (0.2 mg/ml) at 37° C. On the 2nd and 5th days of cultivation, the medium was changed, then substituted with a medium containing 5% of the above serum (rat or mouse serum after oral administration of the specimen) on the 8th, 11th and 14th day, and DNA of the cell was recovered on the 17th days of cultivation. The amount of HBV-DNA was measured by southern blotting, and intracellular HBV-DNA synthesis inhibition was determined. For reference, the same experiment was conducted on PMEA.

[4] = tested on: HBV; assay: Inhibition of HBV growth in mouse serum upon oral administration (HB611 cells cultured with 5% serum); assay type: in vivo; conditions: Hepatitis B virus, HB611, 0.5 h, single oral dose 0.3 g/kg, serum 30 minutes after administration, 5% serum in medium, read-out: HBV-DNA Synthesis Inhibition
Experimental: as §2, §3, §4

[5] = tested on: herpes simplex viruses type-I (HSV-1); conditions: literature; cited from earlier work
[6] = tested on: herpes simplex viruses type-II (HSV-2); conditions: literature; cited from earlier work
[7] = tested on: human immunodeficiency virus (HIV); conditions: literature; cited from earlier work
[8] = tested on: hepatitis B virus; conditions: literature; cited from earlier work
[9] = HB611, Rat, single oral dose 1 g/kg, serum 1 hour after administration, 5% serum in medium
[10] = HB611, Rat, serum 1 hour after administration, 5% serum in medium

Structure (SMILES) | inhibition [1] [%] | CC50 [2] [µM] | other results
Nc1ncnc2c1ncn2CCOCP(=O)(OCC(F)(F)F)OCC(F)(F)F [Example 1, 9-[2-[bis(2,2,2-trifluoroethyl)phosphonylmethoxy]ethyl]adenine] | 91.5 | > 1000 | inhibition at 1000 mg/kg [3, 9]: 89.9%
Nc1nc(N)c2ncn(CCOCP(=O)(OCC(F)(F)F)OCC(F)(F)F)c2n1 [Example 2, 9-[2-[bis(2,2,2-trifluoroethyl)phosphonylmethoxy]ethyl]-2,6-diaminopurine] | 99.9 | 840 | inhibition at 1000 mg/kg [3, 9]: 71.9%
Nc1nc(Cl)c2ncn(CCOCP(=O)(OCC(F)(F)F)OCC(F)(F)F)c2n1 [Example 3, 9-[2-[bis(2,2,2-trifluoroethyl)phosphonylmethoxy]ethyl]-2-amino-6-chloropurine] | 99.9 | 399 | inhibition at 300 mg/kg [4]: 99.9%
Nc1nc(Cl)c2c(ncn2CCOCP(=O)(OCC(F)(F)F)OCC(F)(F)F)n1 [Example 4, 7-[2-[bis(2,2,2-trifluoroethyl)phosphonylmethoxy]ethyl]-2-amino-6-chloropurine] | – | – | inhibition at 300 mg/kg [4]: 36.3%
Nc1nc(N)c2nnn(CCOCP(=O)(OCC(F)(F)F)OCC(F)(F)F)c2n1 [Example 5, 9-[2-[bis(2,2,2-trifluoroethyl)phosphonylmethoxy]ethyl]-8-aza-2,6-diaminopurine] | 97.2 | – | inhibition at 300 mg/kg [4]: 87.2%
COP(=O)(COCCn1cnc2c(N)ncnc21)OCC(F)(F)F (centres unmarked) [Example 12, 9-[2-[methyl(2,2,2-trifluoloethyl)phosphonylmethoxy]ethyl]adenine] | – | > 1000 | inhibition at 1000 mg/kg ([3]; HB611, po, 1 h): 92.9%
COP(=O)(COCCn1cnc2c(N)nc(N)nc21)OCC(F)(F)F (centres unmarked) [Example 13, 9-[2-[methyl(2,2,2-trifluoloethyl)phosphonylmethoxy]ethyl]-2,6-diaminopurine] | – | > 1000 | inhibition at 1000 mg/kg ([3]; HB611, po, 1 h): 77.7%
COCCOP(=O)(COCCn1cnc2c(N)ncnc21)OCCOC [Example 14] | 55 | > 1000 | inhibition at 500 mg/kg [3, 10]: 25.4%
Nc1ncnc2c1ncn2CCOCP(=O)(OCCOc1ccccc1)OCCOc1ccccc1 [Example 15, 9-[[2-bis(2-phenoxyethyl)phosphonylmethoxy]ethyl]adenine] | 59.7 | 174 | inhibition at 500 mg/kg [3, 10]: 38.5%
Nc1ncnc2c1ncn2CCOCP(=O)(OCCOCc1ccccc1)OCCOCc1ccccc1 [Example 16, 9-[[2-bis(2-benzyloxyethyl)phosphonylmethoxy]ethyl]adenine] | 57.8 | 178 | inhibition at 500 mg/kg [3, 10]: 43.6%
CC(=O)OCCOP(=O)(COCCn1cnc2c(N)ncnc21)OCCOC(C)=O [Example 17, 9-[[2-bis(2-acetoxyethyl)phosphonylmethoxy]ethyl]adenine] | 66.2 | > 1000 | –
CCCCC(=O)OCCOP(=O)(COCCn1cnc2c(N)ncnc21)OCCOC(=O)CCCC [Example 18, 9-[[2-bis(2-valeryloxyethyl)phosphonylmethoxy]ethyl]adenine] | 73.4 | 47 | inhibition at 500 mg/kg [3, 10]: 61.4%
Nc1nc2c(ncn2CCOCP(=O)(OCC(F)(F)F)OCC(F)(F)F)c(=O)[nH]1 [Example 20] | 99.9 | – | inhibition at 300 mg/kg [4]: 99.9%
Nc1nc2ncn(CCOCP(=O)(OCC(F)(F)F)OCC(F)(F)F)c2c(=O)[nH]1 [Example 21, 7-[2-[bis(2,2,2-trifluoroethyl)phosphonylmethoxy]ethyl]guanine] | 71.3 | – | –
Nc1c2ncn(CCOCP(=O)(OCC(F)(F)F)OCC(F)(F)F)c2nc[n+]1[O-] [Example 22] | 76.2 | – | inhibition at 300 mg/kg [4]: 15.2%
Nc1nc2c(ncn2CCOCP(=O)(OCC(F)(F)F)OCC(F)(F)F)c(=S)[nH]1 [Example 23, 9-[2-[bis(2,2,2-trifluoroethyl)phosphonylmethoxy]ethyl]-6-thioguanine] | 86.1 | – | –
Cc1ccc(Sc2nc(N)nc3c2ncn3CCOCP(=O)(OCC(F)(F)F)OCC(F)(F)F)cc1 [Example 24, 9-[2-[bis(2,2,2-trifluoroethyl)phosphonylmethoxy]ethyl]-2-amino-6-p-toluylthiopurine] | 99.9 | – | –
Cc1ccc(Sc2nc(O)nc3c2ncn3CCOCP(=O)(OCC(F)(F)F)OCC(F)(F)F)cc1 [Example 25, 9-[2-[bis(2,2,2-trifluoroethyl)phosphonylmethoxy]ethyl]-2-hydroxy-6-p-toluylthiopurine] | 99.9 | – | –
Cn1c(N)nc2c(ncn2CCOCP(=O)(OCC(F)(F)F)OCC(F)(F)F)c1=O [Example 26, 9-[2-[bis(2,2,2-trifluoroethyl)phosphonylmethoxy]ethyl]-1-methylguanine] | 99.9 | – | –
Nc1nc(N)c2ncn(CCOCP(=O)(O)O)c2n1 [PMDAP, 9-(2-phosphonylmethoxy)ethyl-2,6-diaminopurine] | – | – | reported to be effective on herpes simplex virus type-I [5]: effective; reported to be effective on herpes simplex virus type-II [6]: effective; reported to be effective on human immunodeficiency virus [7]: effective; reported to be effective on hepatitis B virus [8]: effective
Nc1ncnc2c1ncn2CCOCP(=O)(O)O [PMEA, 9-(2-phosphonylmethoxy)ethyladenine] | – | – | inhibition at 1000 mg/kg ([3]; HB611, po, 1 h): 35.5%; reported to be effective on herpes simplex virus type-I [5]: effective; reported to be effective on herpes simplex virus type-II [6]: effective; reported to be effective on human immunodeficiency virus [7]: effective; reported to be effective on hepatitis B virus [8]: effective
CC(=O)NCCOP(=O)(COCCn1cnc2c(N)ncnc21)OCCNC(C)=O [Reference Example 1, 9-[[2-bis(2-acetamidethyl)phosphonylmethoxy]ethyl]adenine, reference compound] | – | > 1000 | inhibition at 500 mg/kg [3, 10]: 0%
Nc1ncnc2c1ncn2CCOCP(=O)(OCCO)OCCO [Reference Example 2, 9-[[2-bis(2-hydroxyethyl)phosphonylmethoxy]ethyl]adenine, reference compound] | 31 | > 1000 | inhibition at 500 mg/kg [3, 10]: 0%
